In patent US20240366598A1, “GLUCOSE-DEPENDENT INSULINOTROPIC POLYPEPTIDE RECEPTOR ANTAGONISTS AND USES THEREOF” (Pfizer Inc., priority 2023, published 2024):
pIC50: −log10 of the molar value.

Biological target: T1, human Glucose-dependent Insulinotropic Polypeptide Receptor (hGIPR) (Homo sapiens, UniProt P48546)
T1 sequence (P48546 22-466): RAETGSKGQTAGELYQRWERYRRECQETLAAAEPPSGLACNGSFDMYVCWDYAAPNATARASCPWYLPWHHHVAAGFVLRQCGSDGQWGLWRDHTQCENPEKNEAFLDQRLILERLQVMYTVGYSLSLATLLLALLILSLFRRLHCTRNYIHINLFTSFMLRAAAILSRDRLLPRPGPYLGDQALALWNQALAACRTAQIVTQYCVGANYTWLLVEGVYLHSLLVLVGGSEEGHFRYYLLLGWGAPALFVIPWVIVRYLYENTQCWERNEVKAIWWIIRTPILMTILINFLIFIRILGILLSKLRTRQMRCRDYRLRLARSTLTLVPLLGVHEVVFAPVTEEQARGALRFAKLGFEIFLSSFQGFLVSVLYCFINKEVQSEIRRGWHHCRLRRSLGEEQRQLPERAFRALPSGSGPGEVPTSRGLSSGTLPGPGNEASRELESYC
Test: Functional in vitro GIPR antagonist potency assay (cAMP HTRF, CHO-K1 cells stably expressing hGIPR, hGIP stimulation at about EC80)
Type: cell-based
Details: geometric mean, hGIP at estimated EC80, examples marked ^2: overall geometric mean of multiple forms (including salts) tested
Method in brief: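 CHO-K1 cells expressing hGIPR (2,000 per well) in HBSS/HEPES/0.1% BSA with 200 μM IBMX were preincubated 2 h at 37 °C with an 11-point compound series (0.5% DMSO). hGIP at about EC80 was then added for 30 min, and cAMP was read by HTRF (665/620 nm). Data were normalized between hGIP alone and full antagonism by a reference antagonist at 80 μM.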

| pIC50 | Compound |
| --- | --- |
| 6.59 | CC(C)c1ccc(NC(=O)N2CCC[C@@H]2C(=O)Nc2ccc(-c3cc(F)cc(C(=O)O)c3)cc2)cc1 [Example 85, 5-fluoro-4′-[(1-{[4-(propan-2-yl)phenyl]carbamoyl}-D-prolyl)amino][1,1′-biphenyl]-3-carboxylic acid] |
| 8.12 | Cc1cc(-c2ccc(NC(=O)[C@H]3CCCN3C(=O)Nc3ccc(C(C)C)cc3)cc2)c(F)cc1C(=O)O [Example 86, 2-fluoro-5-methyl-4′-[(1-{[4-(propan-2-yl)phenyl]carbamoyl}-D-prolyl)amino][1,1′-biphenyl]-4-carboxylic acid] |
| 7.96 | Cc1c(C(=O)O)ccc(-c2ccc(NC(=O)[C@H]3CCCN3C(=O)Nc3ccc(C(C)C)cc3)cc2)c1F [Example 87, 2-fluoro-3-methyl-4′-[(1-{[4-(propan-2-yl)phenyl]carbamoyl}-D-prolyl)amino][1,1′-biphenyl]-4-carboxylic acid] |
| 6.37 | CC(C)c1ccc(NC(=O)N2CCC[C@@H]2C(=O)Nc2ccc(-c3ccc(F)c(C(=O)O)c3F)cc2)cc1 [Example 88, 2,4-difluoro-4′-[(1-{[4-(propan-2-yl)phenyl]carbamoyl}-D-prolyl)amino][1,1′-biphenyl]-3-carboxylic acid] |
| 7.74 | COc1cc(-c2ccc(NC(=O)[C@H]3CCCN3C(=O)Nc3ccc(C(C)C)cc3)cc2)c(F)cc1C(=O)O [Example 89, 2-fluoro-5-methoxy-4′-[(1-{[4-(propan-2-yl)phenyl]carbamoyl}-D-prolyl)amino][1,1′-biphenyl]-4-carboxylic acid] |
| 7.35 | Cc1cc(C(=O)O)cc(Cl)c1-c1ccc(NC(=O)[C@H]2CCCN2C(=O)Nc2ccc(C(C)C)cc2)cc1 [Example 90, 2-chloro-6-methyl-4′-[(1-{[4-(propan-2-yl)phenyl]carbamoyl}-D-prolyl)amino][1,1′-biphenyl]-4-carboxylic acid] |
| 7.41 | CC(C)c1ccc(NC(=O)N2CCC[C@@H]2C(=O)Nc2ccc(-c3ccc(C(N)=O)cc3)cc2)cc1 [Example 91, (2R)-N^2-(4′-carbamoyl[1,1′-biphenyl]-4-yl)-N^1-[4-(propan-2-yl)phenyl]pyrrolidine-1,2-dicarboxamide] |
| 7.06 | COc1cc(C(=O)O)cc(C)c1-c1ccc(NC(=O)[C@H]2CCCN2C(=O)Nc2ccc(C(C)C)cc2)cc1 [Example 92, 2-methoxy-6-methyl-4′-[(1-{[4-(propan-2-yl)phenyl]carbamoyl}-D-prolyl)amino][1,1′-biphenyl]-4-carboxylic acid] |
| 7.10 | COc1ccc(-c2ccc(NC(=O)[C@H]3CCCN3C(=O)Nc3ccc(C(C)C)cc3)cc2)cc1C(=O)O [Example 93, 4-methoxy-4′-[(1-{[4-(propan-2-yl)phenyl]carbamoyl}-D-prolyl)amino][1,1′-biphenyl]-3-carboxylic acid] |
| 6.72 | Cc1ccc(C(=O)O)cc1-c1ccc(NC(=O)[C@H]2CCCN2C(=O)Nc2ccc(C(C)C)cc2)cc1 [Example 94, 6-methyl-4′-[(1-{[4-(propan-2-yl)phenyl]carbamoyl}-D-prolyl)amino][1,1′-biphenyl]-3-carboxylic acid] |
| 7.89 | CCc1cc(-c2ccc(NC(=O)[C@H]3CCCN3C(=O)Nc3ccc(C(C)C)cc3)cc2)ccc1C(=O)O [Example 95, 3-ethyl-4′-[(1-{[4-(propan-2-yl)phenyl]carbamoyl}-D-prolyl)amino][1,1′-biphenyl]-4-carboxylic acid] |
| 6.74 | CC(C)c1ccc(NC(=O)N2CCC[C@@H]2C(=O)Nc2ccc(-c3ccc(O)c(Cl)c3)cc2)cc1 [Example 96, (2R)-N^2-(3′-chloro-4′-hydroxy[1,1′-biphenyl]-4-yl)-N^1-[4-(propan-2-yl)phenyl]pyrrolidine-1,2-dicarboxamide] |
| 6.64 | Cc1cc(O)ccc1-c1ccc(NC(=O)[C@H]2CCCN2C(=O)Nc2ccc(C(C)C)cc2)cc1 [Example 97, (2R)-N^2-(4′-hydroxy-2′-methyl[1,1′-biphenyl]-4-yl)-N^1-[4-(propan-2-yl)phenyl]pyrrolidine-1,2-dicarboxamide] |
| 7.52 | CC(C)c1ccc(NC(=O)N2CCC[C@@H]2C(=O)Nc2ccc(-c3cc(Cl)c(C(=O)O)cc3F)cc2)cc1 [Example 98, 5-chloro-2-fluoro-4′-[(1-{[4-(propan-2-yl)phenyl]carbamoyl}-D-prolyl)amino][1,1′-biphenyl]-4-carboxylic acid] |
| 7.74 | CC(C)c1ccc(NC(=O)N2CCC[C@@H]2C(=O)Nc2ccc(-c3cc(F)c(O)c(F)c3)cc2)cc1 [Example 99, (2R)-N^2-(3′,5′-difluoro-4′-hydroxy[1,1′-biphenyl]-4-yl)-N^1-[4-(propan-2-yl)phenyl]pyrrolidine-1,2-dicarboxamide] |
| 7.57 | CC(C)c1ccc(NC(=O)N2CCC[C@@H]2C(=O)Nc2ccc(-c3ccc(O)c(C#N)c3)cc2)cc1 [Example 100, (2R)-N^2-(3′-cyano-4′-hydroxy[1,1′-biphenyl]-4-yl)-N^1-[4-(propan-2-yl)phenyl]pyrrolidine-1,2-dicarboxamide] |
| 7.04 | O=C(O)c1ccc(-c2ccc(NC(=O)[C@H]3CCCN3C(=O)Nc3cnc(C(F)(F)F)nc3)cc2)cc1 [Example 101, 4′-[(1-{[2-(trifluoromethyl)pyrimidin-5-yl]carbamoyl}-D-prolyl)amino][1,1′-biphenyl]-4-carboxylic acid] |
| 6.16 | Cc1nc(NC(=O)N2CCC[C@@H]2C(=O)Nc2ccc(-c3ccc(C(=O)O)cc3)cc2)ccc1C(C)C [Example 102, 4′-[(1-{[6-methyl-5-(propan-2-yl)pyridin-2-yl]carbamoyl}-D-prolyl)amino][1,1′-biphenyl]-4-carboxylic acid] |
| 7.54 | O=C(O)c1ccc(-c2ccc(NC(=O)[C@H]3CCCN3C(=O)Nc3ccc(Cl)cc3Cl)cc2)cc1 [Example 103, 4′-({1-[(2,4-dichlorophenyl)carbamoyl]-D-prolyl}amino)[1,1′-biphenyl]-4-carboxylic acid] |
| 8.54 | CC(C)c1ccc(NC(=O)N2C[C@H]3C[C@H]3[C@@H]2C(=O)Nc2ccc(-c3ccc(C(=O)O)cc3)cc2)cc1 [Example 104, 4′-{[(1R,2R,5S)-3-{[4-(propan-2-yl)phenyl]carbamoyl}-3-azabicyclo[3.1.0]hexane-2-carbonyl]amino}[1,1′-biphenyl]-4-carboxylic acid] |
| 8.06 | CC(C)c1ccc(NC(=O)N2C[C@@H]3C[C@@H]3[C@@H]2C(=O)Nc2ccc(-c3ccc(C(=O)O)cc3)cc2)cc1 [Example 105, 4′-{[(1S,2R,5R)-3-{[4-(propan-2-yl)phenyl]carbamoyl}-3-azabicyclo[3.1.0]hexane-2-carbonyl]amino}[1,1′-biphenyl]-4-carboxylic acid] |
| 8.52 | Cc1cc(NC(=O)N2CCC[C@@H]2C(=O)Nc2ccc(-c3ccc(C(=O)O)cc3)cc2)ccc1C(F)(F)F [Example 106, 4′-[(1-{[3-methyl-4-(trifluoromethyl)phenyl]carbamoyl}-D-prolyl)amino][1,1′-biphenyl]-4-carboxylic acid] |
| 6.14 | N#Cc1cc(CNC(=O)N2CCC[C@@H]2C(=O)Nc2ccc(-c3ccc(C(=O)O)cc3)cc2)ccc1Cl [Example 107, 4′-[(1-{[(4-chloro-3-cyanophenyl)methyl]carbamoyl}-D-prolyl)amino][1,1′-biphenyl]-4-carboxylic acid] |
| 6.59 | O=C(O)c1ccc(-c2ccc(NC(=O)[C@H]3CCCN3C(=O)NCc3cnc(C(F)(F)F)nc3)cc2)cc1 [Example 108, 4′-{[1-({[2-(trifluoromethyl)pyrimidin-5-yl]methyl}carbamoyl)-D-prolyl]amino}[1,1′-biphenyl]-4-carboxylic acid] |
| 8.29 | CC(C)c1ccc(CNC(=O)N2CCC[C@@H]2C(=O)Nc2ccc(-c3ccc(C(=O)O)cc3)cc2)cc1 [Example 109, 4′-{[1-{{[4-(propan-2-yl)phenyl]methyl}carbamoyl)-D-prolyl]amino}[1,1′-biphenyl]-4-carboxylic acid] |
| 8.43 | O=C(O)c1ccc(-c2ccc(NC(=O)[C@H]3CCCN3C(=O)Nc3ccc(Cl)c(C(F)(F)F)c3)cc2)cc1 [Example 110, 4′-[(1-{[4-chloro-3-(trifluoromethyl)phenyl]carbamoyl}-D-prolyl)amino][1,1′-biphenyl]-4-carboxylic acid] |
| 7.96 | CCC(C)c1ccc(NC(=O)N2CCC[C@@H]2C(=O)Nc2ccc(-c3ccc(C(=O)O)cc3)cc2)cc1 (stereo partly drawn) [Example 111, 4′-[(1-{[4-(butan-2-yl)phenyl]carbamoyl}-D-prolyl)amino][1,1′-biphenyl]-4-carboxylic acid] |
| 6.08 | CC(C)c1ncc(NC(=O)N2CCC[C@@H]2C(=O)Nc2ccc(-c3ccc(C(=O)O)cc3)cc2)cn1 [Example 112, 4′-[(1-{[2-(propan-2-yl)pyrimidin-5-yl]carbamoyl}-D-prolyl)amino][1,1′-biphenyl]-4-carboxylic acid] |
| 7.68 | O=C(O)c1ccc(-c2ccc(NC(=O)[C@H]3CCCN3C(=O)NCc3cc(Cl)cc(Cl)c3)cc2)cc1 [Example 113, 4′-[(1-{[(3,5-dichlorophenyl)methyl]carbamoyl}-D-prolyl)amino][1,1′-biphenyl]-4-carboxylic acid] |
| 7.40 | O=C(O)c1ccc(-c2ccc(NC(=O)[C@H]3CCCN3C(=O)Nc3ccc(C4CCCCC4)cc3)cc2)cc1 [Example 114, 4′-({1-[(4-cyclohexylphenyl)carbamoyl]-D-prolyl}amino)[1,1′-biphenyl]-4-carboxylic acid] |
